These results are taken from publication PMC9737772, “Synthesis and Anti-Inflammatory Activity of 1-Methylhydantoin Cinnamoyl Imides” (Molecules, 2022).

Data set [1] has as its system NO release from RAW264.7 cells induced by LPS. The experiment in a line: NO content in supernatant of LPS-induced RAW264.7 cells (Griess). Conditions: for inhibition of NO production: 80 μM, LPS 1 ug/mL, 24 h, RAW264.7; for inhibition of NO release: LPS-stimulated RAW264.7, concentration not stated. Format: cell-based, mouse. The protocol: NO is an important indicator to predict the anti-inflammatory effects of drugs. It has been identified as a proinflammatory cytokine in various inflammatory diseases. NO can induce vasodilation, recruit neutrophils and […] the activation of mast cells, leading to tissue damage. It is essential to reduce the production of NO for inflammatory release. To explore the anti-inflammatory effects of the five compounds, the LPS-induced inflammatory response of RAW264.7 cells was carried out. The NO content in the cell supernatant was measured by the Griess method to evaluate the inhibitory effects of these five compounds on NO production.
RAW264.7 mouse macrophages were purchased from Zhongqiao Xinzhou and cultured in DMEM supplemented with 10% fetal bovine serum (FBS) and 1% penicillin/streptomycin in a 37 °C, 5% CO2 incubator. The cells were passaged every two days to maintain the monolayer cell state.
The RAW264.7 cells in the logarithmic growth phase were seeded in a 24-well plate and placed in a 37 °C, 5% CO2 constant temperature incubator for culture. After 24 h, the culture medium was discarded. The blank group was added with 10% FBS DMEM 1 mL. The group was added with a medium containing 1 ug/mL LPS, and the experimental group was added with LPS and different concentrations of the target compound to make the final volume 1 mL. After 24 h of culture, the cell supernatant was taken and stored in a refrigerator at −20 °C for later use. The Griess kit was used to determine the concentration of NO in the supernatant, and a double antibody sandwich ELISA kit was used to detect TNF-α and IL-1β.

Data set [2] deals with T1, ovine cyclooxygenase-2 (COX-2).
T1 construct: purchased Cayman Chemical 560131
The experiment in a line: In vitro COX inhibition assay (enzyme immunoassay kit), COX-2. To be noted: ovine COX-2, enzyme immunoassay kit. Format: biochemical. The procedure: (§1) The inhibition ability of 1-methylhydantoin cinnamic imides to ovine cyclooxygenase-1 (COX-1) and cyclooxygenase-2 (COX-2) was determined using an enzyme immunoassay kit. […] The Cell Counting Kit-8 (CCK-8) method was used to detect the cytotoxicity of the five target compounds (1–5) on lipopolysaccharide (LPS)-induced RAW264.7 cells. When the concentrations of compounds 1, 3 and 5 are lower than 20 μM, and when the concentrations of compounds 2 and 4 are lower than 80 μM, the survival rate of RAW264.7 cells is more than 95%, which has no obvious damage to cell survival and can be used for subsequent in vitro anti-inflammatory activity experiments to provide the basis.
(§2) The inhibition ability of ovine COX-1 and COX-2 was determined using an enzyme immunoassay kit (560131, Cayman Chemical, Ann Arbor, MI, USA) following the manufacturer’s instructions.

Data set [3] has as its target T2, ovine cyclooxygenase-1 (COX-1) (Ovis aries, UniProt P05979).
T2 construct: purchased Cayman Chemical 560131
T2 sequence (P05979 25-600): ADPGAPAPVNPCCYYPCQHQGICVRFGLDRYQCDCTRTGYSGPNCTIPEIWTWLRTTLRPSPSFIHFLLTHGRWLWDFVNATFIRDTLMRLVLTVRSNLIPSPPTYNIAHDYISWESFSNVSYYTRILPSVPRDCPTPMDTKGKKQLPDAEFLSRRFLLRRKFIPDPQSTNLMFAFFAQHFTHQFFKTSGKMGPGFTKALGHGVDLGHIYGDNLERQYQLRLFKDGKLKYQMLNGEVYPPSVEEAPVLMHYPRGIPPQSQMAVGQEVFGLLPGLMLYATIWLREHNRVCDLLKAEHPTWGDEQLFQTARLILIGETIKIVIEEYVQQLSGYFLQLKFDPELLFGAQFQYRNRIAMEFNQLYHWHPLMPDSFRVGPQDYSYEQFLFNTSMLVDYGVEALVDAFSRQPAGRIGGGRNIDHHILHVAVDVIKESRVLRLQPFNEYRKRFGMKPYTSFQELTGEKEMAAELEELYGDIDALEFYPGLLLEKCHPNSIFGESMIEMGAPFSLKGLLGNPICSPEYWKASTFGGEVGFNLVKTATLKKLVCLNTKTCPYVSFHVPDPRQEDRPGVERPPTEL
The experiment in a line: In vitro COX inhibition assay (enzyme immunoassay kit), COX-1. Format: biochemical. Conditions: ovine COX-1, enzyme immunoassay kit. The protocol: as §1, §2

Entries after “also recorded” stand apart in the source; their conditions may differ.

T1 sequence (P35354 18-604): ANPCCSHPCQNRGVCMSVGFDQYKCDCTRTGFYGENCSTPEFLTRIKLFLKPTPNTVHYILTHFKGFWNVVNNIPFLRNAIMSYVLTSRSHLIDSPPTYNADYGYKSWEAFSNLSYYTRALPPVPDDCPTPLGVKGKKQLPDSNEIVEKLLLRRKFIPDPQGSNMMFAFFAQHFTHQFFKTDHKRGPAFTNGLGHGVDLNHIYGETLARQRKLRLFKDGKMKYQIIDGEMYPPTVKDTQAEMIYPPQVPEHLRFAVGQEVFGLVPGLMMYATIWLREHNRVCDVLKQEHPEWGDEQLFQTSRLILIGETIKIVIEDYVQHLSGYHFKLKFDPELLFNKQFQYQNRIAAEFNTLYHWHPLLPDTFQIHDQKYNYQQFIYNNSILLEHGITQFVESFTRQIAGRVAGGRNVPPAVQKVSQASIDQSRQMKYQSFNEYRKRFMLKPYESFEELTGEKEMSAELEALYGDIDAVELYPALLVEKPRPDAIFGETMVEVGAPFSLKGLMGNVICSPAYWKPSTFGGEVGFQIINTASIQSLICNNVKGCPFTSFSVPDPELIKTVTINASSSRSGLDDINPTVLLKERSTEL

Turning to `CN1CC(=O)N(C(=O)/C=C/c2ccco2)C1=O` [Compound 2, (E)-3-(3-(furan-2-yl)acryloyl)-1-methylimidazolidine-2,4-dione], the melting point (in general, the temperature, or range, at which the solid turns liquid) was 128.9 to 129.8 °C. For the same compound, in data set [1], the “inhibition of NO production” value is “showed a significant effect on NO” and the “inhibition of NO release” value is given as “significantly inhibit the release of NO”. For the same compound, the IC50 (in general, the concentration that gives 50% inhibition) in data set [2] stood at 204 ± 10 µM. Also, half-maximal inhibition in data set [3] (IC50) required 56 ± 6 µM.

In the case of `CC(=O)Oc1ccc(/C=C/C(=O)N2C(=O)CN(C)C2=O)cc1` [Compound 4, (E)-4-(3-(3-methyl-2,5-dioxoimidazolidin-1-yl)-3-oxoprop-1-en-1-yl)phenyl acetate], the melting point lay in the range of 148.9 to 149.6 °C. Moreover, in data set [1], the “inhibition of NO production” value was “showed a significant effect on NO” and the “inhibition of NO release” value was “significantly inhibit the release of NO; also recorded: reduced the release of NO”. For the same compound, the IC50 in data set [2] was 126 ± 12 µM. For the same compound, in data set [3], the IC50 was determined as 37 ± 4 µM.
